From US20230087766A1, “METHODS OF REACTIVATING LATENT HUMAN IMMUNODEFICIENCY VIRUS AND RELATED COMPOSITIONS” (priority 2017, published 2023)

Assays:
Format in all cases: cell-based
[1] = tested on: latent HIV in resting CD4+ T cells from HIV-infected individuals under ART; test: Quantitative Viral Outgrowth Assay (QVOA), p24 ELISA; details: resting CD4+ T cells from 5 HIV-infected individuals under ART; ex vivo
Method: It was tested whether the histone crotonylation inducer, sodium crotonate, can reactivate latent HIV reservoirs from a patient under ART. Peripheral blood samples were obtained from 5 HIV-infected individuals with undetectable plasma viral loads and higher CD4+ T cell numbers (see Table 1). One million resting CD4+ T cells were treated with IL-2, PHA+IL-2, or IL-2+Na-Cro, and HIV p24 production was measured by QVOA using p24 ELISA as a measure of HIV reactivation.
Quantitative Viral Outgrowth Assay: Peripheral blood mononuclear cells (PBMC) were obtained from HIV-infected individuals on suppressive ART (n=5) by continuous-flow leukopheresis. Isolation of resting CD4+ T cells and quantification of replication competent virus was performed as previously described (see S. Dandekar, et al. Current HIV/AIDS reports 4, 10-15 (2007)). […] Cultures were scored as positive if p24 was detected at day 15 and was increased in concentration at day 19. […]

[2] = tested on: latent HIV (HIV LTR-driven transcription) in J-Lat A1 cells
Method: Cell culture: J-Lat Al cells (derived from Jurkat cells harboring HIV LTR-Tat-GFP gene) and U1 cells (promonocytic cell line harboring one copy of HIV genome with defective tat gene) were obtained from NIH AIDS Reagent Program and cultured at 37° C. with 5% CO2 in RPM11640 medium containing 10% FBS and 1% penicillin-streptomycin as previously described (see G. Jiang, et al. PLoS Pathogens 11, e1005066 (2015)).
For inhibiting ACSS2 and crotonylation, cells were pretreated with ACSS2 inhibitor, AR12 (SELLECK CHEMICALS™, Houston, Tex.), for 30 minutes, followed by Na-Cro treatment for 4 or 18 hours.
Real-Time PCR Analysis: HIV gene expression was measured using real-time PCR in J-Lat Al cells treated with LRAs. Total nucleic acid was extracted using RNEASY™ Kit, genomic DNA digested using DNase I and total RNA reverse transcribed using Superscript III to synthesize cDNA. […] […] TAMRA-3′ (SEQ ID NO:3).

[3] = tested on: HIV LTR in J-Lat A1 cells; test: Chromatin immunoprecipitation (ChIP) at the HIV LTR; details: J-Lat A1 cells, 30 mM Na-Cro for 4 hours
Source text: FIG. 2 is a series of images and graphs showing that histone crotonylation by sodium crotonate addition re-programs histone tails at the HIV LTR. Panel A illustrates that Na-Cro addition increased global expression of H3K4Cro, H3K4Ac, and H3K18Ac while decreasing H3K27Me3. Panel B illustrates expression of transcription factors after Na-Cro addition in J-Lat Al cells. Panels C-E illustrate that Na-Cro addition re-programmed histone tails at the HIV LTR. Chromatin immunoprecipitation (ChIP) assay was performed by using anti-H3K4Cr, anti-H3K4Ac, and anti-H3K27Me3 antibodies after J-Lat Al cells were treated with 30 mM Na-Cro for 4 hours. PCR primers were specific for the HIV LTR region.
FIG. 7 is a series of graphs showing that induction of de-crotonylation of histone tail at HIV LTR is independent of SIRTs. Panel A illustrates that J-Lat Al cells were pre-treated with either 50 μM RSV or 1 mM NAM, followed by 30 mM Na-Cro addition to reactivate latent HIV expression. Untreated controls were compared with positive controls involving individual treatment of Na-Cro, RSV, or NAM. *, p<0.05; **, p<0.01 compared with control treatment. #, p<0.05 compared with Na-Cro treatment. Panel B illustrates that gene expression of sirt1 or sirt3 was measured by RT-qPCR in J-Lat Al cells treated with either 25 μM RSV, 50 μM RSV, or 1 mM NAM. *, p<0.05 and **, p<0.01 compared with control treatment. Panels C and D illustrate that histone crotonylation induces binding of SIRT3 and SIRT1 at the HIV LTR. J-Lat Al cells were treated with 30 mM Na-Cro for 4 hours and analyzed by ChIP assays using anti-SIRT1 or anti-SIRT3 antibodies. *, p<0.05 compared with control treatment.
Chromatin Immunoprecipitation (ChIP): J-Lat Al cells (2.5 to 5 million) were utilized in ChIP assays with anti-H3K18Ac, anti-H3K4Cr, anti-H3K27Me3, anti-H3K4Ac, anti-SIRT3 (CELL SIGNALING TECHNOLOGY®), and anti-SIRT1 (CELL SIGNALING TECHNOLOGY®) antibodies. ChIP assays were performed using […]® Kit from CELL SIGNALING TECHNOLOGY® as per the manufacturer's recommendations. Samples were cross-linked using formaldehyde and 150-1000 bp fragments were made using Micrococcal Nuclease digestion and 7 cycles of 30 seconds on/30 seconds off sonication. Antibodies were used to probe respective proteins. Purification of DNA was performed using the […]® Kit Protocol. Purified ChIP DNA was used in SYBR® Green qPCR using ChIP primers specific for HIV LTR.

C/C=C/C(=O)[O-].[Na+] [Na-Cro, sodium crotonate]
replication-competent HIV recovered (HIV reactivation, QVOA) [1]: four of the five participants | induction of HIV LTR-driven transcription ([2]; J-Lat A1 and U1 cell cultures): dose-dependent manner | reactivation of latent HIV by epigenetic modifiers ([2]; J-Lat A1 cells, 30 mM Na-Cro, 500 nM SAHA, 2 μM GSK343 or 5 μM AZA-dc, RT-qPCR): comparable capacity to reactivate latent HIV | increase in HIV transcription compared to untreated controls ([2]; J-Lat A1 cells, Na-Cro at 40 mM): 12 fold | HIV reactivation compared to the control ([2]; Na-Cro alone, AR12 experiment (FIG. 3, panel D)): 8 fold | acetylation at H3K4 at the HIV LTR [3]: increased | binding of SIRT1 at the HIV LTR [3]: efficiently bound to the HIV LTR at higher levels than controls | binding of SIRT3 at the HIV LTR [3]: efficiently bound to the HIV LTR at higher levels than controls | crotonylation at H3K4 at the HIV LTR [3]: increased | histone tri-methylation at H3K27 at the HIV LTR [3]: decreased
